The source of these data is patent US10093660B2, “Sulfoximine substituted quinazolines for pharmaceutical compositions” (EVOTEC INTERNATIONAL GMBH, priority 2013, dated 2018).

Test [1] relates to MNK2 (MNK2a or MNK2b) or MNK1. To be noted: cell culture cells transfected with MNK2 (MNK2a or MNK2b) or MNK1; cited from earlier work.
In another test the target is MNK2a (Homo sapiens (Human), UniProt Q9HBH9). The experiment in a line: MNK2a in vitro kinase assay (Assay 2), ADP-Glo. Format: biochemical. To be noted: assay 2; read-out: MNK2 IC50. From the text: B. MNK2a In Vitro Kinase Assay (Assay 2)
On the technique in general: In ADP-Glo the light output rises with the ADP produced.

A further test addresses MNK1a (Homo sapiens (Human), UniProt Q9BUB5). Kind of test: MNK1 in vitro kinase assay (Assay 3), Z'-LYTE. The class given is biochemical. To be noted: for inhibition at 1 µM: compound concentration of 1 μM, read-out: MNK1 % INH.

SMILES strings stand for the structures.

Sequence of MNK1a (Q9BUB5 other isoform, or with tags, fused parts or gaps): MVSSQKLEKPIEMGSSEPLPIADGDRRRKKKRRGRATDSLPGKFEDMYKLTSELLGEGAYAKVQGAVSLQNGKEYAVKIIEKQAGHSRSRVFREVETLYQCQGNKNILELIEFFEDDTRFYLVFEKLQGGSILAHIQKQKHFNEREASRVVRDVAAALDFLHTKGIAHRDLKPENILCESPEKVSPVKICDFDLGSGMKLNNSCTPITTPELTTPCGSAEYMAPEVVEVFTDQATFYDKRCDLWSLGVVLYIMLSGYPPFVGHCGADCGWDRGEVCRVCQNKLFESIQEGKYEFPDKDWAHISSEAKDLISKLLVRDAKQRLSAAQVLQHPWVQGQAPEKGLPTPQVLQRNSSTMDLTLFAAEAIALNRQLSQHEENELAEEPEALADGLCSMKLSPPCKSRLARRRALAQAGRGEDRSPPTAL
Sequence of MNK2a (Q9HBH9 whole entry): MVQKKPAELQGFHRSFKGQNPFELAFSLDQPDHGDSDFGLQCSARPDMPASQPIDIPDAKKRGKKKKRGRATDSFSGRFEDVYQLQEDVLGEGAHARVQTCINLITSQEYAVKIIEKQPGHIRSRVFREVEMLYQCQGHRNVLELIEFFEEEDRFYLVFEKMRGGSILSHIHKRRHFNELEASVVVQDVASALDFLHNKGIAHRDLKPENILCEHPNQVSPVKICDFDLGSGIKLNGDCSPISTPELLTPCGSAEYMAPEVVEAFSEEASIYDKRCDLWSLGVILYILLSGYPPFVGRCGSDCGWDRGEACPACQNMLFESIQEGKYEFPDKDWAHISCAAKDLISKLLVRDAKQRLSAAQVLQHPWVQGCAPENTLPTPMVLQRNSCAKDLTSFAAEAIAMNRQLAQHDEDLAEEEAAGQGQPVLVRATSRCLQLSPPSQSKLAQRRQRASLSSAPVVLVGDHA

With `Nc1ncnc2n[nH]c(Nc3ccc(F)cc3)c12` [CGP57380], the “reduction of phosphorylated eIF4E” value in test [1] is “strong reduction of phosphorylated eIF4E”.

The IC50 is the concentration needed to halve the response being measured. Take `Cc1cc(N=S(C)(C)=O)cc2ncnc(Nc3cccnc3O[C@@H]3COC[C@H]3O)c12` [Example 2.51]: on MNK2a, the IC50 came out at 11 nM. Further, the inhibition at 1 µM on MNK1a is 81%.

On to `Cc1cc(N=S2(=O)CCCC2)cc2ncnc(Nc3ccc(F)cc3O[C@H]3COC[C@H]3O)c12` (single isomer, unassigned) [Example 14.6], for which the IC50 on MNK2a stood at 2 nM. The inhibition at 1 µM on MNK1a was 101%.

As for `CC[S@](C)(=O)=Nc1cc(C)c2c(Nc3ccc(F)cc3O[C@H]3COC[C@@H]3O)ncnc2c1` (single isomer, unassigned) [Example 14.11], the IC50 at MNK2a came to 4 nM. For the same compound, the inhibition at 1 µM at MNK1a turned out to be 96%.

As to `CO[C@@H]1CN(C)C[C@H]1Oc1ncccc1Nc1ncnc2cc(N=S3(=O)CCCC3)cc(C)c12` [Example 11.3], at MNK2a, the IC50 turned out to be 12 nM. For the same compound, at MNK1a, the inhibition at 1 µM was 87%.

On to `Cc1cc(N=S(C)(C)=O)cc2ncnc(Nc3ccc(Cl)cc3O[C@@H]3COC[C@H]3O)c12` [Example 1.31], for which the IC50 at MNK2a is 6 nM. Besides, at MNK1a, the inhibition at 1 µM stood at 91%.

Regarding `CS(C)(=O)=Nc1cc(Cl)c2c(Nc3ccc(F)cc3O[C@H]3COC[C@H]3O)ncnc2c1` (racemic) [Example 1.3], the IC50 on MNK2a is 3 nM. For the same compound, the inhibition at 1 µM at MNK1a was determined as 95%.

For `COc1cc(N=S(C)(C)=O)cc2ncnc(Nc3ccc(F)cc3O[C@H]3COC[C@H]3O)c12` (racemic) [Example 9.3], the IC50 on MNK2a is 26 nM. For the same compound, on MNK1a, the inhibition at 1 µM came out at 90%.

For `CS(C)(=O)=Nc1cc(F)c2c(Nc3ccc(F)cc3O[C@H]3COC[C@H]3O)ncnc2c1` (racemic) [Example 2.52], at MNK2a, the IC50 amounted to 15 nM. Further, at MNK1a, the inhibition at 1 µM worked out at 97%.

As for `Cc1cc(N=S2(=O)CCCC2)cc2ncnc(Nc3ccc(Cl)nc3O[C@H]3COC[C@@H]3O)c12` [Example 2.42], the values for the 50% inhibitory concentration (IC50) on MNK2a and against MNK1a were 4 nM and 39 nM, respectively.

Turning to `Cc1cc(N=S(C)(C)=O)cc2ncnc(Nc3ccc(Cl)nc3O[C@H]3COC[C@@H]3O)c12` [Example 2.40], on MNK2a, the IC50 is 6 nM. In addition, the inhibition at 1 µM at MNK1a amounted to 96%.
